Data reported in US20250042886A1, “BIS(HETERO)ARYL THIOETHER OXADIAZINES AS FUNGICIDAL COMPOUNDS” (Bayer Aktiengesellschaft, priority 2021, published 2025).

What was measured:
[1] = tested on: Colletotrichum lindemuthianum; assay: In vivo preventive test on Colletotrichum lindemuthianum (leaf spot on bean); details: 168 h, 500 ppm of active ingredient, sprayed on young bean plants 24 h before inoculation, evaluated 7 days after inoculation, read-out: efficacy
Procedure: (§1) B-4. […] The active ingredients were made soluble and homogenized in a mixture of Dimethyl sulfoxide/Acetone//Tween® 80 and then diluted in water to the desired concentration. The young plants of bean were treated by spraying the active ingredient prepared as described above. Control plants were treated only with an aqueous solution of Acetone/Dimethyl sulfoxide/Tween® 80. After 24 hours, the plants were contaminated by spraying the leaves with an aqueous suspension of Colletotrichum lindemuthianum spores.

[2] = Measurement of Log P values by HPLC on reversed phase columns (EEC directive 79/831 Annex V.A8); format: physicochemical; details: Table 1, compounds of formula (I); method [a]: LC-UV, acidic range, 0.1% formic acid in water and acetonitrile
Botrytis cinerea [3] = assay: In vivo preventive test on Botrytis cinerea (grey mould); details: 500 ppm of active ingredient, sprayed on young gherkin or cabbage plants 24 h before inoculation, evaluated 4 to 5 days after inoculation, read-out: efficacy
In short: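 Young plants of gherkin or cabbage were sprayed with water-diluted compound formulated in DMSO/acetone/Tween 80, with solvent-only controls. Inoculation followed 24 h later by spraying an aqueous spore suspension of Botrytis cinerea onto leaves.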

Pyricularia oryzae = assay: microbe, parasite or virus in culture; format: cell-based; details: 120 h, read-out: efficacy (inhibition of fungal growth), 20 ppm of active ingredient, liquid culture, 5 days incubation
[4] = tested on: Colletotrichum lindemuthianum; assay: Colletotrichum lindemuthianum in vitro cell test; format: cell-based; details: 144 h, 20 ppm of active ingredient, liquid culture, 6 days incubation, read-out: efficacy (inhibition of fungal growth)
In short: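 Inhibition of spore germination and mycelium growth, as absorbance relative to untreated wells, was read on day 6. Compounds from DMSO stocks were added to a spore suspension in glucose/peptone/yeast extract broth.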

Botrytis cinerea [5] = assay: Botrytis cinerea in vitro cell test; format: cell-based; details: 144 h, 20 ppm of active ingredient, liquid culture, 6 days incubation, read-out: efficacy (inhibition of fungal growth)
In short: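 Liquid-culture germination/growth test: spore suspension in synthetic medium (salts, urea, KNO3, saccharose, trace elements, thiamine, biotin) with compound dissolved in DMSO. Absorbance of mycelial growth measured at day 6, compared with untreated wells to give inhibition.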

Septoria tritici = Septoria tritici in vitro cell test; format: cell-based; details: Zymoseptoria tritici, 168 h; 20 ppm of active ingredient; liquid culture, 7 days incubation; read-out: efficacy (inhibition of fungal growth)
Procedure: B-11. Septoria tritici In Vitro Cell Test • Solvent: DMSO • Culture medium: 1 g KH2PO4 (VWR), 1 g K2HPO4 (VWR), 0.5 g Urea (VWR), 3 g KNO3 (Prolabo), 10 g saccharose (VWR), 0.5 g MgSO4, 7H2O (Sigma), 0.07 g CaCl2, 2H2O (Prolabo), 0.2 mg MnSO4, H2O (Sigma), 0.6 mg CuSO4, 5H2O (Sigma), 7.9 mg ZnSO4, 7H2O (Sigma), 0.1 mg H3BO3 (Merck), 0.14 mg NaMoO4, 2H2O (Sigma), 2 mg thiamine (Sigma), 0.1 mg biotine (VWR), 4 mg FeSO4, 7H2O (Sigma), QSP 1 liter • Inoculum: spore suspension Fungicides were solubilized in DMSO and the solution used to prepare the required range of concentrations. […] A spore suspension of S. tritici was prepared and diluted to the desired spore density. Fungicides were evaluated for their ability to inhibit spore germination and mycelium growth in liquid culture assay. The compounds were added in the desired concentration to the culture medium with spores. […] Inhibition of fungal growth was determined by comparing the absorbance values in wells containing the fungicides with the absorbance in control wells without fungicides.

Sphaerotheca fuliginea = assay: In vivo preventive test on Sphaerotheca fuliginea (powdery mildew on cucurbits); details: Podosphaera fuliginea, 192 h; 500 ppm of active ingredient, sprayed on young gherkin plants 24 h before inoculation; evaluated 8 days after inoculation; read-out: efficacy
Procedure: as §1, with “B-3.” for “B-4.”, “gherkin” for “bean”, “Sphaerotheca fuliginea” for “Colletotrichum lindemuthianum”

Pyrenophora teres = Pyrenophora teres in vitro cell test; format: cell-based; details: 144 h, 20 ppm of active ingredient, liquid culture, 6 days incubation, read-out: efficacy (inhibition of fungal growth)
In short: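 Compounds in DMSO were added to P. teres spore suspensions in glucose/peptone/yeast-extract liquid medium, testing inhibition of spore germination and mycelium growth. After 6 days, mycelium growth was read by absorbance. Inhibition was calculated relative to fungicide-free control wells.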

Fusarium culmorum = Fusarium culmorum in vitro cell test; format: cell-based; details: 120 h, 20 ppm of active ingredient, liquid culture, 5 days incubation, read-out: efficacy (inhibition of fungal growth)
In short: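 Spores in liquid mineral-salts/saccharose medium exposed to compounds (DMSO ≤1% final) for 5 days. Mycelium growth measured spectrometrically, with inhibition derived from absorbance relative to fungicide-free control wells.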

Alternaria alternata = Alternaria alternata in vitro cell test; format: cell-based; details: 120 h, 20 ppm of active ingredient, liquid culture, 5 days incubation, read-out: efficacy (inhibition of fungal growth)
In short: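 Spores in glucose/mycological peptone/yeast extract liquid medium were exposed to DMSO-dissolved fungicides for 5 days. Inhibition of germination and mycelial growth was read spectrophotometrically, comparing absorbance against fungicide-free control wells.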

Alternaria brassicae = assay: In vivo preventive test on Alternaria brassicae (leaf spot on radish or cabbage); details: 500 ppm of active ingredient, sprayed on young radish or cabbage plants 24 h before inoculation, evaluated 3 to 4 days after inoculation, read-out: efficacy
In short: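 Young radish or cabbage plants sprayed preventively with compound formulated in DMSO/acetone/Tween 80 and diluted in water; vehicle-treated plants as controls. Leaves inoculated by spraying an aqueous Alternaria brassicae spore suspension 24 h after treatment.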

Row | SMILES | pest or weed control at 500 ppm [1] [%] | chromatographic logP [2] | pest or weed control at 500 ppm (Botrytis cinerea [3]) [%] | inhibition at 20 ppm (Pyricularia oryzae) [%] | inhibition at 20 ppm [4] [%] | inhibition at 20 ppm (Botrytis cinerea [5]) [%] | inhibition at 20 ppm (Septoria tritici) [%] | pest or weed control at 500 ppm (Sphaerotheca fuliginea) [%] | inhibition at 20 ppm (Pyrenophora teres) [%] | inhibition at 20 ppm (Fusarium culmorum) [%] | inhibition at 20 ppm (Alternaria alternata) [%] | pest or weed control at 500 ppm (Alternaria brassicae) [%]
1 | Cc1ccc(C[C@H]2CON=C(c3nc(C)ncc3Sc3cccc(C(F)(F)F)c3)N2)c(C)c1 (racemic) [Compound I-007] | 90 to 100 | 5.21 | 90 to 100 | 70 to 79 | 90 to 100 | 90 to 100 | 80 to 89 | 90 to 100 | 90 to 100 |  |  | 
2 | Clc1ccc(C[C@@H]2CON=C(c3cc(Cl)nnc3Sc3cccc(Br)c3)N2)c(Cl)c1 (racemic) [Compound I-005] |  | 4.88 | 90 to 100 | 90 to 100 | 90 to 100 | 90 to 100 |  | 80 to 89 |  |  |  | 
3 | Cc1cccc(Sc2cnc(Cl)cc2C2=NOC[C@@H](Cc3ccc(Cl)cc3Cl)N2)c1 (racemic) [Compound I-011] |  | 4.86 | 90 to 100 | 90 to 100 | 90 to 100 | 90 to 100 | 90 to 100 |  | 90 to 100 | 90 to 100 | 70 to 79 | 
4 | COc1cccc(Sc2cnc(C)nc2C2=NOC[C@H](Cc3ccc(C)cc3C)N2)c1 (racemic) [Compound I-009] | 70 to 79 | 4.67 | 80 to 89 |  | 80 to 89 | 90 to 100 | 70 to 79 |  |  |  |  | 80 to 89
5 | Cc1ccc(CC2CON=C(c3cc(Cl)nnc3Sc3cccc(C(F)(F)F)c3)N2)c(C)c1 (racemic) [Compound I-017, (5RS)-3-(6-chloro-3-{[3-(trifluoromethyl)phenyl]sulfanyl}pyridazin-4-yl)-5-(2,4-dimethylbenzyl)-5,6-dihydro-4H-1,2,4-oxadiazine] | 90 to 100 | 5.27 | 90 to 100 | 80 to 89 | 90 to 100 | 90 to 100 | 90 to 100 | 90 to 100 |  |  | 80 to 89 | 90 to 100
6 | FC(F)(F)c1ccc(Sc2nnc(Cl)cc2C2=NOC[C@@H](Cc3ccc(Br)cc3Cl)N2)cc1 (racemic) [Compound I-035] | 90 to 100 | 5 | 90 to 100 |  |  |  |  | 80 to 89 |  |  |  | 
7 | Cc1ccc(C[C@H]2CON=C(c3nc(C)ncc3Sc3cccc(C(F)(F)F)c3)N2)c(Cl)c1 (racemic) [Compound I-013] | 90 to 100 | 5.28 | 90 to 100 |  | 90 to 100 | 90 to 100 | 90 to 100 | 90 to 100 |  |  |  | 80 to 89
8 | Cc1cccc(Sc2cnc(C)nc2C2=NOC[C@@H](Cc3ccc(C)cc3Cl)N2)c1 (racemic) [Compound I-010] | 90 to 100 | 5.17 | 90 to 100 |  | 90 to 100 |  | 90 to 100 | 90 to 100 | 90 to 100 | 90 to 100 |  | 80 to 89
9 | Cc1ccc(C[C@H]2CON=C(c3c(Sc4cccc(Cl)c4)cnc4ccccc34)N2)c(C)c1 (racemic) [Compound I-024] |  | 4.46 |  | 90 to 100 | 90 to 100 | 90 to 100 | 90 to 100 |  | 90 to 100 | 90 to 100 | 90 to 100 | 
